Data taken from ChEMBL document CHEMBL1122176, “Synthesis and antitumor activity of 10-alkyl-10-deazaminopterins. A convenient synthesis of 10-deazaminopterin” (J Med Chem, 1982).
Converted amounts (≈) assume the structure as drawn.

Assays:
[1] = system: L1210; experiment: Minimum inhibitory concentration of compound was tested for growth inhibition of L1210 cells; format: functional; details: Mus musculus
[2] = system: Lacticaseibacillus casei; experiment: Concentration required for the 50% growth inhibition of Lactobacillus casei ATCC 7469 organism at 1 ng/mL folate concentration; format: functional, organism-based
[3] = system: L1210; experiment: Antitumor activity expressed as mean survival time against L1210 leukemia cells in mice after sc administration at dose 3 mg/kg; details: route subcutaneous
[4] = system: L1210; experiment: % increase in lifespan was measured at 3 mg/kg dosage after sc administration; details: Mus musculus
[5] = Concentration required for the 50% growth inhibition of Streptococcus faecium ATCC 8043 organism at 1 ng/mL folate concentration
[6] = target: T1, Dihydrofolate reductase (Mus musculus, UniProt P00375); experiment: Tested for inhibition of dihydrofolate reductase enzyme
T1 sequence (P00375 whole entry): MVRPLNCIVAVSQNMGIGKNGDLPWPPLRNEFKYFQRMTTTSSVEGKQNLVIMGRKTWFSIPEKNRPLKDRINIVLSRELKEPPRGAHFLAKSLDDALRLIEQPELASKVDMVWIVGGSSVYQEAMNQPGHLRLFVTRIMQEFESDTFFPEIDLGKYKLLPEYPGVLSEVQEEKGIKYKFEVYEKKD

[7] = The efflux rate constant of the compound; format: ADME
[8] = system: Enterococcus faecium; experiment: Concentration required for the 50% growth inhibition of Streptococcus faecium MTX resist organism at 1 ng/mL folate concentration; format: functional, organism-based
[9] = system: L1210; experiment: % increase in lifespan was measured at 15 mg/kg dosage after sc administration; details: Mus musculus
[10] = Michaelis constant of compound was determined from affinity towards carrier component of transport mechanism
[11] = system: Enterococcus faecium; experiment: Concentration required for the 50% growth inhibition of Streptococcus faecium ATCC 8043 organism at 1 ng/mL folate concentration; format: functional, organism-based
[12] = Influx velocity of the compound; format: ADME
[13] = system: L1210; experiment: Antitumor activity expressed as mean survival time against L1210 leukemia cells in mice after sc administration at dose 15 mg/kg; details: route subcutaneous
[14] = target: Dihydrofolate reductase (Lactobacillus casei) (UniProt P00381); experiment: Concentration required for the 50% growth inhibition of Lactobacillus casei dihydrofolate reductase enzyme; details: Lacticaseibacillus casei
Sequence of Dihydrofolate reductase (Lactobacillus casei) (P00381 whole entry): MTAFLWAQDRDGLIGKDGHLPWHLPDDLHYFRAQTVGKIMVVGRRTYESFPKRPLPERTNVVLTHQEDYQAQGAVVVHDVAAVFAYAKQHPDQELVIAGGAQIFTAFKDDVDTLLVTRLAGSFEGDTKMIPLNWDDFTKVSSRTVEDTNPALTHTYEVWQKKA

[15] = system: L1210; experiment: Minimum inhibitory concentration of compound was tested for growth inhibition of L1210 cells.; format: functional; details: Mus musculus
[16] = target: T1, Dihydrofolate reductase; experiment: Tested for inhibition of dihydrofolate reductase enzyme from mouse

Row | Structure (SMILES) | MIC50 [1] [µM] | Concentration [2] [ng/mL] | MST [3] [days] | ILS at 3 mg/kg [4] [%] | Concentration [5] [ng/mL] | Ki [6] [nM] | K [7] [min⁻¹] | Concentration [8] [ng/mL] | ILS at 15 mg/kg [9] [%] | Km [10] [µM] | Concentration [11] [ng/mL] | Vmax [12] [nM/min/g] | MST [13] [days] | IC50 [14] [nM] | MIC50 [15] [µM] | Ki [16] [nM]
1 | Nc1nc(N)c2nc(CCc3ccc(C(=O)N[C@@H](CCC(=O)O)C(=O)O)cc3)cnc2n1 | 0.00061 (≈ 0.268 ng/mL) | 0.01 | 17.3 | 162 | 0.2 | 0.0021 | 0.23 | > 2000 | 178 | 0.96 | 0.2 | 8.13 | 18.4 |  |  | 
2 | CCC(Cc1cnc2nc(N)nc(N)c2n1)c1ccc(C(=O)O)cc1 (stereo not given) |  | 5.4 |  |  | 0.9 |  |  | 50 |  |  | 0.9 |  |  | 380 |  | 
3 | CC(Cc1cnc2nc(N)nc(N)c2n1)c1ccc(C(=O)NC(CCC(=O)O)C(=O)O)cc1 (stereo not given) | 0.00051 (≈ 0.231 ng/mL) | 0.03 | 18.6 | 181 | 0.32 | 0.0024 | 0.23 | 200 | 235 | 1.01 | 0.32 | 8.02 | 22.1 | 28 |  | 
4 | CC(Cc1cnc2nc(N)nc(N)c2n1)c1ccc(C(=O)O)cc1 (stereo not given) |  | 5 |  |  | 0.72 |  |  | 60 |  |  | 0.72 |  |  | 420 |  | 
5 | CC(C)(Cc1cnc2nc(N)nc(N)c2n1)c1ccc(C(=O)NC(CCC(=O)O)C(=O)O)cc1 (stereo not given) | 0.00058 (≈ 0.271 ng/mL) | 0.04 | 16.1 | 143 | 0.25 | 0.0026 | 0.24 | > 2000 | 135 | 0.93 | 0.25 | 8.31 | 15.9 | 27 |  | 
6 | CN(Cc1cnc2nc(N)nc(N)c2n1)c1ccc(C(=O)N[C@@H](CCC(=O)O)C(=O)O)cc1 [METHOTREXATE] | 0.00271 (≈ 1.23 ng/mL) | 0.01 | 15.8 | 139 |  |  | 0.19 | 3500 | 151 | 3.42 | 0.05 | 7.77 | 16.6 |  |  | 
7 | Nc1nc(N)c2nc(CNc3ccc(C(=O)N[C@@H](CCC(=O)O)C(=O)O)cc3)cnc2n1 [AMINOPTERIN] |  |  |  |  |  |  | 0.21 |  |  | 1.21 |  | 7.83 |  |  | 0.00061 (≈ 0.269 ng/mL) | 0.0023
8 | CC(C)(Cc1cnc2nc(N)nc(N)c2n1)c1ccc(C(=O)O)cc1 |  | 3.6 |  |  | 0.5 |  |  | 40 |  |  | 0.5 |  |  | 440 |  | 
9 | CCC(Cc1cnc2nc(N)nc(N)c2n1)c1ccc(C(=O)NC(CCC(=O)O)C(=O)O)cc1 (stereo not given) | 0.00055 (≈ 0.257 ng/mL) | 0.08 | 17.8 | 170 | 0.37 |  | 0.2 | 1300 | 211 | 0.89 | 0.37 | 7.8 | 20.5 | 27 |  | 
